The values below come from patent US20140023611A1 (priority 2010, published 2014).

In one data set the target is T1, rat NaP2b (SLC34A2) (Rattus norvegicus, UniProt Q9JJ09).
T1 construct: host or cells: HEK293
T1 sequence (Q9JJ09 1-695): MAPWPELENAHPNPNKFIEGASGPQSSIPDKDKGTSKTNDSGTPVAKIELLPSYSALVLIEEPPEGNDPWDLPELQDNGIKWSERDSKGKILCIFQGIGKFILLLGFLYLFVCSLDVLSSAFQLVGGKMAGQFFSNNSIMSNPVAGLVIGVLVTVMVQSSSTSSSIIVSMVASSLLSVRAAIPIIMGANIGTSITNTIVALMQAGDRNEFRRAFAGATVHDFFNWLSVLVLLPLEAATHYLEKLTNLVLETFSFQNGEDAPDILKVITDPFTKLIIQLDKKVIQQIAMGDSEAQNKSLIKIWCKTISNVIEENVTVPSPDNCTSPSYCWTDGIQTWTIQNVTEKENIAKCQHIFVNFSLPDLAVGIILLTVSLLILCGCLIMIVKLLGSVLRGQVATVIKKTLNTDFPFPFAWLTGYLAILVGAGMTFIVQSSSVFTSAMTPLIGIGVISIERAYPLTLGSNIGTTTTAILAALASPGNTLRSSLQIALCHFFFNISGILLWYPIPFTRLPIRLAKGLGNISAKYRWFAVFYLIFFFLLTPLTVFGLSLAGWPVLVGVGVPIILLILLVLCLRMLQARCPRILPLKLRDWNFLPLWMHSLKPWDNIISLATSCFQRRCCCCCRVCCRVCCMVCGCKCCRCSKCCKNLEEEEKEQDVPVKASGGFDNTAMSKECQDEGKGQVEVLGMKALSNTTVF
The data set is described as follows: Inhibition of NaP2b-mediated Pi (33P) uptake in transfected HEK293 cells, rat NaP2b. It is filed as cell-based. Conditions: 33P Pi uptake, 0.1 mM phosphate, value given as pIC50 range. In a few lines:
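The cells transiently expressed NaP2b after Lipofectamine transfection. Each compound was run in duplicate over twelve concentrations, 0.1 nM–30 uM.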

Data set [1] in a line: Fecal recovery of orally administered compounds. Conditions: Structure (I) examples, Table 16; rat, oral gavage, feces collected until 48 hr after dosing. It is filed as in vivo, Sprague-Dawley rats.
Excerpt: The animals were kept in metabolic cages and feces were collected from the time of dosing until 48 hr after dosing. Upon collection, feces were dried by lyophilization and ground to a visually homogenous powder. Duplicate samples of ground feces from each individual animal were weighed out and extracted using organic solvent. […] Extraction conditions were not optimized for individual compounds, and thus may represent a minimal level of recovery.
(§1) The animals were kept in metabolic cages and feces were collected from the time of dosing until 48 hr after dosing. Upon collection, feces was dried by lyophilization and ground to a visually homogenous powder. Duplicate samples of ground feces from each individual animal were weighed out and extracted using organic solvent. […] Extraction conditions were not optimized for individual compounds, and thus may represent a minimal level of recovery.
as §1
The animals were kept in metabolic cages and feces were collected from the time of dosing until 48 hr after dosing. Upon collection, feces was dried by lyophilization and ground to a visually homogenous powder. Duplicate samples of ground feces from each individual animal were weighed out and extracted using organic solvent.

A short description of data set [2]: Stability of compounds in simulated gastric fluid (SGF). It is filed as in vitro ADME. Conditions: simulated gastric fluid (3 mg/mL pepsin), incubation time 6 hr, relative to t=0. In a few lines: (§2)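 Compounds at […] were incubated 3 or 6 hr in USP simulated gastric fluid with 3 mg/mL pepsin or simulated intestinal fluid with 3 mg/mL pancreatin. Remaining compound was quantified by HPLC-UV or HPLC-MS peak area % and reported as percent of the t=0 level in the same medium.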

Data set [3] in a line: Determination of compound Cmax and AUC after oral gavage (plasma LC-MS/MS). It is filed as in vivo, Sprague-Dawley rats. Conditions: Sprague-Dawley, rat, plasma, po, Structure (I) examples. In a few lines:
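Plasma exposure measured by LC-MS/MS after acetonitrile precipitation with internal standard, quantified against a standard curve made in plasma. Compound given orally by gavage to Sprague-Dawley rats at nominal 2.5 or 10 mg/kg, with K2EDTA plasma sampled at 0.5, 1, 2 and 4 h.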

A short description of data set [4]: Stability of compounds in simulated intestinal fluid (SIF). Conditions: simulated intestinal fluid (3 mg/mL pancreatin), incubation time 6 hr, relative to t=0. It is filed as in vitro ADME. In a few lines: as §2
Data set [5] has as its system Uptake of Phosphorus from the Intestine. Nature of the data set: In vivo co-dosing in chow (urine P out / P consumed). Conditions: Rattus norvegicus, feed or water, rats, compound in chow, read-out: Mean % inhibition Urine Pout/P consumed. The source says: Male, 7-week-old Sprague-Dawley rats (Charles-River laboratories international, Hollister, Calif.) were allowed to acclimate for a minimum of 3 days. The experiment was initiated by switching animals to a synthetic diet (0.6% phosphorus and 0.6% calcium, Harlan Teklad TD.84122) for four days. After this time, the animals were placed into metabolic cages for daily monitoring of food and water consumption, as well as urine and fecal collections. Test compounds were incorporated into the powdered diet listed above containing 3% chocolate flavoring (w/w, BioServ #7345) at 1.3 mg test compound per gram of diet to achieve an average daily nominal dose of 100 mg/kg/day. The actual dose received by each animal was later determined by measuring prepared diet consumption and body weight. Urine samples were collected in three daily periods from 24-48, 48-72, and 72-96 hours of drug dosing. Averaging these three 24 h periods allows for the more representative measurements of urination, fecal excretion, food consumption and water uptake for each animal. Phosphorus levels in the urine were determined by anion exchange chromatography using a Dionex ICS-3000 ion chromatography system. Urine samples were diluted 1:500 or 1:1000 and injected onto an IonPac AS18 analytical column (2×250 mm) using a potassium hydroxide eluent. Elution of urine phosphate ions was monitored via conductivity detector and reported as ppm relative to a standard ion solution containing phosphate. Daily urinary P output relative to the P consumed in the prepared diet for each animal was calculated. The percentage inhibition of phosphorus absorption was estimated by determining the reduction of this ratio compared to the control group (animals with no drug in chow). The differences between the means of control and treated groups were evaluated by t tests. In all experiments, one group was always included that had Renvela powder blended into their chow at 0.9% targeting a dose of 750 mg/kg.

A further data set has as its target T2, human NaP2b (SLC34A2) (Homo sapiens, UniProt O95436).
T2 construct: host or cells: HEK293
T2 sequence (O95436 1-690): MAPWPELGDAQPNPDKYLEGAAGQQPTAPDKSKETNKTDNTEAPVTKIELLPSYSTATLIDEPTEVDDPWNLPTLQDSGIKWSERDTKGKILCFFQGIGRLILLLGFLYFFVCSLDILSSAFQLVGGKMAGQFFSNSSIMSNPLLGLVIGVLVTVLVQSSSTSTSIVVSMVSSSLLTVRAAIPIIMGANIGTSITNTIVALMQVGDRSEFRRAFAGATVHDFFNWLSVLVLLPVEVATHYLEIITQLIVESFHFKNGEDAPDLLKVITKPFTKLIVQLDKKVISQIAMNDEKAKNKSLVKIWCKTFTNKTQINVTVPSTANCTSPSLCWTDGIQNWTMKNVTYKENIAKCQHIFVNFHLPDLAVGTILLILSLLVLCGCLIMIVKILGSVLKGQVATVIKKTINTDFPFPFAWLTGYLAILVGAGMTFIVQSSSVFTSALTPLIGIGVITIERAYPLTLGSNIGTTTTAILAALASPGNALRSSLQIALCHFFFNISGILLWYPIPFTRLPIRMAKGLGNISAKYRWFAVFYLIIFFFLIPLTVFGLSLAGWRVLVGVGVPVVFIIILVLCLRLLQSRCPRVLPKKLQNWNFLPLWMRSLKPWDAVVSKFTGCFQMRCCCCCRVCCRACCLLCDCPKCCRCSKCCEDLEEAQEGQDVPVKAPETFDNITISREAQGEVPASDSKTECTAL
The data set is described as follows: Inhibition of NaP2b-mediated Pi (33P) uptake in transfected HEK293 cells, human NaP2b. The format is cell-based. Conditions: read-out: pIC50 range for human NaP2b (converted). In a few lines:
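Uptake of 33P-phosphate (100 uM KH2PO4 carrier, sodium vs choline buffer, pH 7.4) measured after 3-30 min at room temperature, with test compound at twelve concentrations from 0.1 nM to 30 uM in duplicate. Cells were HEK293 transfected with mutated human NaP2b (Thr insertion after 37, N39D) and treated with a PiT-silencing agent. pIC50 values from scintillation counts.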

Where [6] appears, read: Table 15, actual oral dose 3-15 mg/kg, plasma 0.5-4 h.
Where [7] appears, read: Table 15, actual oral dose 15-40 mg/kg, plasma 0.5-4 h.

SMILES strings stand for the structures.

The AUC is concentration integrated over time. One may read the Cmax as the maximum level reached in the sampled fluid or tissue.

`O=C(NCc1cccc(C(F)(F)F)c1)c1ccnc(-c2cc(N3CCCCC3)ccc2NC(=O)c2cccc(CSCCCO)c2)c1` [Example 8.3] had an IC50 on rat NaP2b (SLC34A2) of 1000 to 7940 nM. Besides, the “% recovered in feces” value in data set [1] was less than 20%.

`CC(C)(SCc1cccc(C(=O)Nc2ccc(N3CCCCC3)cc2-c2cc(C(=O)NCc3cccc(C(F)(F)F)c3)ccn2)c1)C(=O)O` [Example 8.6] showed an IC50 against rat NaP2b (SLC34A2) of 1000 to 7940 nM. In addition, the “% remaining, SGF” value in data set [2] is listed as more than 80%. In addition, in data set [1], the “% recovered in feces” value is 20-80%. In addition, in data set [3] (setting [6]), the AUC is more than 50 ng·h/mL and the Cmax was less than 50 ng/mL. The “% remaining, SIF” value in data set [4] was more than 80%.

With `O=C(O)CCOCCOCCOCCNC(=O)Cc1cccc(SCc2cccc(C(=O)Nc3ccc(N4CCCCC4)cc3-c3cc(C(=O)NCc4cccc(C(F)(F)F)c4)ccn3)c2)c1` [Example 137], the IC50 at rat NaP2b (SLC34A2) was 1000 to 7940 nM. In addition, in data set [2], the “% remaining, SGF” value is listed as more than 80%. Moreover, the “% recovered in feces” value in data set [1] is less than 20%. Further, in data set [3] (setting [6]), the AUC is less than 10 ng·h/mL and the Cmax is less than 10 ng/mL. Besides, the “% remaining, SIF” value in data set [4] is more than 80%.

As to `CCN(CC)c1ccc(NC(=O)c2cccc(COCCOCCOCCOCCOCCOCCOCCOCCOC)c2)c(-c2cc(C(=O)NCc3cccc(C(F)(F)F)c3)ccn2)c1` [Example 173, 2-(2-(3-2,5,8,11,14,17,20,23,26-nonaoxaheptacosylbenzamido)-5-(diethylamino)phenyl)-N-(3-(trifluoromethyl)benzyl)isonicotinamide], the inhibition in vivo at 90 mg/kg/day in data set [5] (mean drug dose 90 mg/kg/day) was not above 10%. Also, the IC50 on rat NaP2b (SLC34A2) and on human NaP2b (SLC34A2) was less than 1000 nM throughout. The “% remaining, SGF” value in data set [2] is reported as more than 80%. Also, in data set [4], the “% remaining, SIF” value is more than 80%.

For the compound `CCN(CC)c1ccc(NC(=O)c2cccc(C(=O)N(C)CCN3CCC[C@H]3C(=O)NCCOCCOCCOCCOCCOCCOCCOCCOC)c2)c(-c2cc(C(=O)NCc3cccc(C(F)(F)F)c3)ccn2)c1` [Example 203, (S)—N^1-(2-(2-(2,5,8,11,14,17,20,23-octaoxapentacosan-25-ylcarbamoyl)pyrrolidin-1-yl)ethyl)-N^3-(4-(diethylamino)-2-(4-((3-(trifluoromethyl)benzyl)carbamoyl)pyridin-2-yl)phenyl)-N^1-methylisophthalamide], the inhibition in vivo at 100 mg/kg/day in data set [5] (mean drug dose 100 mg/kg/day) is not above 10%. Also, the IC50 against rat NaP2b (SLC34A2) and on human NaP2b (SLC34A2) was 1000 to 7940 nM throughout. Moreover, in data set [2], the “% remaining, SGF” value is reported as more than 80%. Further, the “% remaining, SIF” value in data set [4] is given as more than 80%.

On to `CCN(CC)c1ccc(NC(=O)c2cccc(CCCOCCOCCOCCOCCC(=O)N3CCN(C(=O)c4cccc(CCCOCCOCCOCCOCCOCCOCCOCCOCCOC)c4)CC3)c2)c(-c2cc(C(=O)NCc3cccc(C(F)(F)F)c3)ccn2)c1` [Example 262, 2-(2-(3-(16-(4-(3-(2,5,8,11,14,17,20,23,26-nonaoxanonacosan-29-yl)benzoyl)piperazin-1-yl)-16-oxo-4,7,10,13-tetraoxahexadecyl)benzamido)-5-(diethylamino)phenyl)-N-(3-(trifluoromethyl)benzyl)isonicotinamide], for which the IC50 on rat NaP2b (SLC34A2) and on human NaP2b (SLC34A2) was 1000 to 7940 nM each time. Further, in data set [1], the “% recovered in feces” value was 20-80%. The compound also registered an AUC in data set [3] (setting [7]) of less than 50 ng·h/mL. In data set [3] (Table 15, plasma 0.5-4 h), the Cmax is less than 10 ng/mL.

Take `CCN(CC)c1ccc(NC(=O)c2cccc(CCCOCCOCCOCCOCCNC(=O)c3cccc(CCCOCCOCCOCCOCCOCCOCCOCCOCCOC)c3)c2)c(-c2cc(C(=O)NCc3cccc(C(F)(F)F)c3)ccn2)c1` [Example 271, 2-(2-(3-(1-(3-(2,5,8,11,14,17,20,23,26-nonaoxanonacosan-29-yl)phenyl)-1-oxo-5,8,11,14-tetraoxa-2-azaheptadecan-17-yl)benzamido)-5-(diethylamino)phenyl)-N-(3-(trifluoromethyl)benzyl)isonicotinamide]: the IC50 on rat NaP2b (SLC34A2) was 1000 to 7940 nM. Further, the “% recovered in feces” value in data set [1] is on record as 20-80%. The same compound registered an AUC in data set [3] (setting [7]) of more than 50 ng·h/mL. Moreover, the Cmax in data set [3] (Table 15, plasma 0.5-4 h) is less than 30 ng/mL.

With `CCN(CC)c1ccc(NC(=O)c2cccc(CCCOCCOCCOCCOCCNS(=O)(=O)c3ccc(CCC(=O)O)cc3)c2)c(-c2cc(C(=O)NCc3cccc(C(F)(F)F)c3)ccn2)c1` [Example 294, 3-(4-(N-(15-(3-(4-(diethylamino)-2-(4-(3-(trifluoromethyl)benzylcarbamoyl)pyridin-2-yl)phenylcarbamoyl)phenyl)-3,6,9,12-tetraoxapentadecyl)sulfamoyl)phenyl)propanoic acid], the IC50 on rat NaP2b (SLC34A2) and on human NaP2b (SLC34A2) was less than 1000 nM each time. Besides, the “% recovered in feces” value in data set [1] is more than 80%. Also, the AUC in data set [3] (setting [6]) was more than 50 ng·h/mL. In data set [3] (setting [6]), this compound had a Cmax of less than 10 ng/mL.
